Laboratory results: PMC7119080 (Bioorganic & Medicinal Chemistry Letters, 2005)

What was measured:
Papain = Papain (Carica papaya, UniProt P00784); format: biochemical
Chymotrypsin = Chymotrypsin (Bos taurus, UniProt P00766); test: biochemical

Chain of Papain (P00784 134-345 limits assumed): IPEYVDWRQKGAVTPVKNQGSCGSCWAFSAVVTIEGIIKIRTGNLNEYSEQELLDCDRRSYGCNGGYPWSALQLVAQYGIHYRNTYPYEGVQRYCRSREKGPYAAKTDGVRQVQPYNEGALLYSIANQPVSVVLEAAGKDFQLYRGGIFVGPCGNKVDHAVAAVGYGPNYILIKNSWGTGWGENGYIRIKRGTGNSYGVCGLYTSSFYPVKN

| SMILES | more potent inhibition for SARS CoV 3CL^pro than for papain (Papain) | IC50 (Chymotrypsin) [µM] |
| --- | --- | --- |
| O=C1C(=O)N(Cc2cc3ccccc3s2)c2c(Br)cccc21 [Compound 4k] | 90–105 times | 10.4 |
| O=C1C(=O)N(Cc2cc3ccccc3s2)c2ccc(I)cc21 [Compound 4o] | 90–105 times |  |
